From US4831053A, “Composition for prophylaxis and therapy of hepatitis” (Otsuka Pharmaceutical Co., Ltd., priority 1979, dated 1989) come the findings set out here.

One series deals with complement. As to the kind of experiment: Anti-complement activity. The procedure: A 30-liter jar fermentor was charged with 20 liters of a culture medium of the above formulation, and one flask of the resulting seed culture was cultivated in the culture medium at 28° C. for 5 days with stirring at 300 rpm at an aeration rate of 1 liter per liter of the culture medium per minute. The resulting culture broth was centrifuged at a speed of 8,000 rpm to remove the microbial cells. To the supernatant liquid was added 5 liters of methanol, and the mixture was stirred and then allowed to stand for 3 hours. The mixture was centrifuged and the solid material was removed. The supernatant was extracted with an equal quantity, by volume, of ethyl acetate. The solvent of the ethyl acetate layer was distilled off under reduced pressure. The residue was dissolved in methanol, and passed through a column of activated carbon. The eluate was concentrated to dryness under reduced pressure. The dried mass was dissolved in a mixture of chloroform and ethyl acetate (1:1, v/v) and gel-filtered through a column of Sephadex LH-20. […] The compound had the following physicochemical characteristics.

Series [1] concerns fulminant hepatitis (Schwarzman hepatitis). As to the kind of experiment: Schwarzman hepatitis (endotoxin-induced fulminant hepatitis): serum GOT and LDH levels, liver sections. In kind it is in vivo, S.D. strain rats. The procedure:
The test for evaluating the prophylactic and therapeutic effect of the compound represented by the formula (I) or (II) was conducted in accordance with the method of Mori et al., Kanzo, Vol. 17, pp. 580-589 (1976), using S.D. strain rats having a body weight of about 300 g as test animals, and causing fulminant hepatitis (Schwarzman hepatitis) to occur. More particularly, 4 test groups, each consisting of 5 S.D. strain rats, were administered 0.1 mg/body of endotoxin (LPS: E. coli 0.26: B6, a product of Difco Co.) peritoneally (by injection), and after 48 hours the same endotoxin preparation was administered by injection to each group at a dosage of 0.05, 0.2, 0.5 or 1.2 mg/body for boostering. On the other hand, 5 mg/body of the active ingredient of the agent of this invention was administered peritoneally by injection once a day for 6 days. This treatment was initiated 2 days before the first administration of endotoxin took place and ended on the day after the second administration of endotoxin for boostering. The test animals were victimized (i.e., destroyed and analyzed) 48 hours after the second administration of endotoxin, and the levels of GOT and LDH in the serum of the victimized rats were determined using a UV method described in American Journal of Clinical Pathology, Vol. 47, pp. 419-428 (1967) and Cancer Research, Vol. 14, pp. 513-515 (1954). In addition, degree of occurrence of hepatic necrosis and distribution of endotoxin in the liver were obseved microscopically using sections of liver of the victimized animals. The compound obtained in Synthesis Example 2 was used as the active ingredient. The same procedure was repeated on animals of 4 control groups which were not administered the active ingredient. The levels of GOT and of LDH in the serum determined for the group which received endotoxin boostering amount of 0.5 mg/body at the second administration and for the control group are shown in FIGS. 1 and 2, respectively. In FIGS. 1 and 2, the symbol o indicates the values obtained for each test animal in the group. Evaluation of the results was made based on the average value ± an error obtained by statistical treatment thereof. […] The sections of livers of the test animals of the same groups as above were observed using the fluorescence antibody method described in Journal of Experimental Medicine, Vol. 91, pp. 1-13 (1950).

The nature of series [2]: Tautomer equilibrium in solution (NMR). The format is physicochemical. The conditions noted are these: methanol or pyridine as solvent. The procedure: Integration of the areas under the peak signals indicates a proportion of the former to the latter of about 73:27. After 2 hours the peak at 9.89 ppm increase further to an extent that the integrated proportions become about 70:30, and this proportion remains unchanged according to NMR analysis even after 63 hours. From this it follows that the compound represented by formula (I) and that represented by formula (II) are present in a molar proportion of about 7:3 in the solution. However, when methanol or pyridine is used as a solvent, the compound of formula (II) is not formed.

A short description of series [3]: Acute toxicity (intravenous). The conditions noted are these: in vivo, rat. The method, then:
The acute toxicity of the compound obtained in Synthesis Example 2 was determined by administering it intravenously to rat. The LD50 value obtained was 500 mg/kg.

A further series relates to chronic hepatitis. As to the kind of experiment: Clinical data: patient with chronic hepatitis, GOT, GPT and serum bilirubin before and after administration. In kind it is in vivo. Conditions: human, oral, about 500 mg twice a day. The method, then: This treatment was continued for 2 months.
The levels of glutamic oxalacetic transaminase (GOT), glutamic pyruvic transaminase (GPT) and serum bilirubin (SB) were determined according to the conventional methods described in Am. J. Clin. Path., 28, 56-63 (1957) (for GOT and GPT) and in J. Biol. Chem., 119, 481-490 (1937) (for SB), and compared with the data obtained before the administration, as shown in Table below.

The mark [4] stands for this setting: microscopic observation of liver sections (×100), FIG. 3b.
The mark [5] stands for this setting: rat, 5 mg/body i.p. once a day for 6 days, endotoxin booster 0.5 mg/body, vs control group.

Turning to `CC1CCC2C(C)(C)C(O)C(O)CC2(C)C12Cc1c(O)cc(C=O)c(C=O)c1O2` (stereo not shown) [Synthesis Example 1, 6,7-dihydroxy-2,5,5,8a-tetramethyl-1,2,3,4,4a,5,6,7,8,8a-decahydronaphthalene-1-spiro-2'-(6',7'-diformyl-4'-hydroxy-2',3'-dihydrobenzofuran)], the anti-complement activity result in the series on complement was “having an anti-complement activity”.
For orientation: LD50 means the dose at which mortality reaches 50%. As for `CC1CCC2C(C)(C)C(O)C(O)CC2(C)C12Cc1c(O)cc3c(c1O2)C(O)OC3=O` (stereo not shown) [Synthesis Example 2, 4,8-dihydroxy-6-oxo-2,3,6,8-tetrahydro-furo[3,4-g]benzofuran-2-spiro-1'-(6',7'-dihydroxy-2',5',5',8'a-tetramethyl-1',2',3',4',4'a,5',6',7',8',8'a-decahydronaphthalene)], the “distribution of endotoxin in the liver” value in series [1] (fluorescence antibody method, liver sections, FIG. 4b) is “strongly localized in Kupffer cells but scarcely outside the cells”. In addition, in series [1] (setting [4]), the “degree of cell degeneration of liver cells” value was “very slight” and the “occurrence of damage of cells of liver” value was “significantly inhibited or such damage was substantially cured”. In addition, in series [1] (setting [5]), the “level of GOT in the serum” value is given as “significantly lower than those of the control group” and the “level of LDH in the serum” value is listed as “significantly lower than those of the control group”. In series [1] (rat, 5 mg/body i.p. once a day for 6 days, from GOT and LDH levels), the “occurrence of fulminant hepatitis (Schwarzman hepatitis)” value was “significantly inhibits the occurrence of fulminant hepatitis”. Besides, the “formation of compound of formula (II) in solution” value in series [2] is listed as “not formed”. This compound also came in with an LD50 in series [3] of 500 mg/kg.
Consider `CC1CCC2C(C)(C)C(O)C(O)CC2(C)C12Cc1c(O)cc(C(=O)O)c(C=O)c1O2` (stereo not shown) [Synthesis Example 3, disodium 6,7-dihydroxy-2,5,5,8a-tetramethyl-1,2,3,4,4a,5,6,7,8,8a-decahydronaphthalene-1-spiro-2'-(6'-carboxylate-7'-formyl-4'-oxide-2',3'-dihydrobenzofuran)], for which the “feeling with respect to fatigue and loss of strength” value with chronic hepatitis (2 months, described by patient) is on record as “considerably improved feeling”. The “SB (serum bilirubin)” value in the series on chronic hepatitis (after administration (2 months), before: 2.6) was found to be 1.5 mg/dL. This compound also showed a GPT in the series on chronic hepatitis (after administration (2 months), before: 143) of 67 unit. In addition, the GOT with chronic hepatitis (after administration (2 months), before: 180) is 45 unit.
